Patent EP0603240B1, “SAFENING HERBICIDAL PYRAZOLYLSULFONYLUREAS” (priority 1991, dated 1993)

Key:
[1] = tested on: velvetleaf (Abutilon theophrasti); assay: Example 20, Procedure II: Herbicide No. 1 + EPTC or ERADICANE EXTRA with Antidote Nos. 5 and 15; format: in vivo
Method: (§1) Containers were filled and compacted with a fumigated silt loam top soil to a depth of about 1.3 cm from the top of the container. A first container was designated as an untreated control, a second container was designated as a herbicide control, and a third container was designated as a herbicide + antidote test container. Each of the containers was seeded with a crop species. A measured amount of herbicide dispersed or dissolved in acetone was applied to a measured quantity of soil. To this same quantity of soil treated with herbicide, there was added a measured amount of antidote dispersed or dissolved in acetone. The quantity of soil treated with the herbicide and antidote was thoroughly mixed to incorporate the herbicide and antidote in the soil uniformly. The seed bed in the third container of soil was covered with the soil treated with the herbicide and antidote and the container was leveled. For each test series, the seed beds of the first and second containers were likewise covered by soil layers. the cover layer of the first container was not treated with herbicide or antidote.
(§2) The containers were then placed on a bench in a greenhouse and sub-irrigated as required for the duration of the test. […] Plant response is measured in terms of percent injury. Antidote efficacy is indicated as the difference in plant injury by the herbicide(s) without the antidote and with the antidote.
This procedure is the same as Procedure I, but modified in the manner that after incorporation of the chemicals (herbicide and antidote) the containers with the covered seedbed were treated with an initial overhead irrigation equivalent to 0.6 cm rainfall, then subsequently sub-irrigated as required on greenhouse benches.
(§3) In the series of greenhouse tests described below, for routine screening purposes the herbicide/antidote compositions were tested in crop/weed combinations involving corn as the crop and either or both of the weeds barnyardgrass (Echinochloa crusgalli), a monocotyledonous weed, and velvetleaf (Abutilon theophrasti), a dicotyledonous weed. In the tables below, these weeds are indicated by the symbols "BYG" and "VL", respectively.
This example describes experiments designed to test two generally efficacious antidotal compounds, i.e., Antidote Nos. 5 and 15, against the herbicidal action of the sulfonylurea compound, Herbicide No. 1, and the commercial herbicides EPTC (Herbicide No. 4) and ERADICANE® EXTRA (EPTC + R-29148, Antidote No. 5). Procedure II above was used in conducting these experiments. Formulations of EPTC and ERADICANE EXTRA were applied onto soil cover layers (to be applied over seed beds), followed by sequential pipetting of Herbicide No. 1 and Antidote No. 15. The soil was mixed to homogeneity and spread over the seed beds followed by 0.6 cm of overhead irrigation.

[2] = tested on: velvetleaf (Abutilon theophrasti); assay: Example 5, Procedure I: Herbicide No. 1 + alachlor (No. 7) with Antidote Nos. 15 and 16; format: in vivo
Method: as §1, §2, §3
(§4) This example describes tests with Antidote Nos. 15 and 16 to safen Herbicide No. 1 according to Procedure I using corn and the weeds barnyardgrass and velvetleaf as the test plants.
(§5) In the tests described in this example, the same procedure described in Example 4 was performed simultaneously therewith and under the same conditions, except that a co-herbicide, alachlor, was included in the same composition with Herbicide No. 1 and Antidote Nos. 15 and 16. Alachlor (Herbicide No. 7 herein) is the active ingredient in the commercial product LASSO® herbicide.

[3] = tested on: barnyardgrass (Echinochloa crusgalli); assay: as above; format: in vivo
Method: as §1, §2, §3, §4, §5

[4] = tested on: corn; assay: Example 25, greenhouse post-emergence test: Antidote Nos. 1 and 2 against Herbicide Nos. 1-3; format: in vivo, Corn (Pioneer 3424 variety); conditions: for % Inhibition Corn: no herbicide; for inhibition at 0.25 g/ha / inhibition at 0.74 g/ha / inhibition at 2.5 g/ha / inhibition at 0.07 g/ha: Zea mays
Method: Additional tests were conducted in the greenhouse in order to evaluate the antidotal efficacy of Antidote Nos. 1 (dichlormid) and 2 (naphthalic anhydride) in protecting corn from the herbicidal activity of Herbicide Nos. 1-3 (i.e., NC-319, NC-319 EX and NC-311, respectively). The chemicals were tested in both preemergence and post-emergence modes of application. The herbicides were prepared and applied as wettable powders; dichlormid was applied as an emulsifiable concentrate, while the naphthalic anhydride was applied as a coating on the corn seed prior to planting.
Corn seeds (Pioneer 3424 variety) were planted in alluvial soil containing compost and fertilizer in pots 12 cm. in diameter. Test chemicals were applied with a spray gun at the spray volume rate of 11.2 l/ha at the time of seeding in the preemergence tests and seven (7) days after seeding in the post-emergence tests, when the check (control) plants were at the 16-20 cm., 3.0-3.2 leaf stage, and naphthalic anhydride coated seed grown plants were at the 14-16 cm., 2.8-3.0 leaf stage.
Test data from the preemergence tests are shown in Table 25A and from the post-emergence tests in Table 25B. In the tables, the concentration of chemicals is shown in terms of active ingredient in grams per hectare (G/ha); concentrations of the naphthalic anhydride were not measured per se, but were present as in conventional, normally-coated applications. Corn injury is shown in terms of percent inhibition of growth.

[5] = Herbicide No.1 4.48 + No.7 0.56 kg/ha, no antidote
[6] = Herbicide No.1 4.48 + No.7 2.24 kg/ha, no antidote
[7] = Herbicide No.1 6.72 + No.7 0.56 kg/ha, no antidote
[8] = Herbicide No.1 6.72 + No.7 (alachlor) 2.24 kg/ha, no antidote
[9] = Herbicide No.1 4.48 + No.7 0.56 kg/ha + antidote 0.56 kg/ha
[10] = Herbicide No.1 4.48 + No.7 0.56 kg/ha + antidote 2.24 kg/ha
[11] = Herbicide No.1 4.48 + No.7 2.24 kg/ha + antidote 0.56 kg/ha
[12] = Herbicide No.1 4.48 + No.7 2.24 kg/ha + antidote 2.24 kg/ha
[13] = Herbicide No.1 6.72 + No.7 0.56 kg/ha + antidote 0.56 kg/ha
[14] = Herbicide No.1 6.72 + No.7 0.56 kg/ha + antidote 2.24 kg/ha
[15] = Herbicide No.1 6.72 + No.7 2.24 kg/ha + antidote 0.56 kg/ha
[16] = Herbicide No.1 6.72 + No.7 2.24 kg/ha + antidote 2.24 kg/ha

CC1(C)OC(c2ccco2)CN1C(=O)C(Cl)Cl (stereo not shown) [Antidote No. 15, Oxazolidine, 3-(dichloroacetyl)-5-(2-furanyl)-2,2-dimethyl]
% Injury VL ([1]; Herbicide No.1 0.56 kg/ha + No. 4 2.24 kg/ha, Antidote No. 15 0.18 kg/ha): 90%
% Injury VL ([1]; Herbicide No.1 0.56 kg/ha + No. 4 4.48 kg/ha, Antidote No. 15 0.35 kg/ha): 95%
% Injury VL ([1]; Herbicide No.1 0.56 kg/ha + No. 4 6.78 kg/ha, Antidote No. 15 0.56 kg/ha): 95%
% Injury VL ([1]; Herbicide No.1 2.24 kg/ha + No. 4 2.24 kg/ha, Antidote No. 15 0.18 kg/ha): 95%
% Injury VL ([1]; Herbicide No.1 2.24 kg/ha + No. 4 4.48 kg/ha, Antidote No. 15 0.35 kg/ha): 95%
% Injury VL ([1]; Herbicide No.1 2.24 kg/ha + No. 4 6.78 kg/ha, Antidote No. 15 0.56 kg/ha): 100%

COC(=O)c1c(Cl)nn(C)c1S(=O)(=O)NC(=O)Nc1nc(OC)cc(OC)n1 [Herbicide No. 1]
% Injury VL [2, 5]: 98%
% Injury VL [2, 6]: 98%
% Injury VL [2, 7]: 98%
% Injury VL [2, 8]: 98%
% Injury BYG [3, 5]: 99%
% Injury BYG [3, 6]: 100%
% Injury BYG [3, 7]: 99%
% Injury BYG [3, 8]: 100%

COC(=O)c1c(Cl)nn(C)c1S(=O)(=O)NC(=O)Nc1nc(OC)cc(OC)n1 [No.1]
% Injury VL ([1]; Herbicide No.1 0.56 kg/ha + ERADICANE EXTRA 2.24 kg/ha): 95%
% Injury VL ([1]; Herbicide No.1 0.56 kg/ha + ERADICANE EXTRA 4.48 kg/ha): 90%
% Injury VL ([1]; Herbicide No.1 0.56 kg/ha + ERADICANE EXTRA 6.72 kg/ha): 100%
% Injury VL ([1]; Herbicide No.1 0.56 kg/ha + No. 4 2.24 kg/ha, no antidote): 95%
% Injury VL ([1]; Herbicide No.1 0.56 kg/ha + No. 4 4.48 kg/ha, no antidote): 90%
% Injury VL ([1]; Herbicide No.1 0.56 kg/ha + No. 4 6.72 kg/ha, no antidote): 100%
% Injury VL ([1]; Herbicide No.1 0.56 kg/ha alone): 95%
% Injury VL ([1]; Herbicide No.1 2.24 kg/ha + ERADICANE EXTRA 2.24 kg/ha): 100%
% Injury VL ([1]; Herbicide No.1 2.24 kg/ha + ERADICANE EXTRA 4.48 kg/ha): 100%
% Injury VL ([1]; Herbicide No.1 2.24 kg/ha + ERADICANE EXTRA 6.72 kg/ha): 95%
% Injury VL ([1]; Herbicide No.1 2.24 kg/ha + No. 4 2.24 kg/ha, no antidote): 95%
% Injury VL ([1]; Herbicide No.1 2.24 kg/ha + No. 4 4.48 kg/ha, no antidote): 95%
% Injury VL ([1]; Herbicide No.1 2.24 kg/ha + No. 4 6.72 kg/ha, no antidote): 100%
% Injury VL ([1]; Herbicide No.1 2.24 kg/ha alone): 100%

C=CCN(CC=C)C(=O)C(Cl)Cl [compound 1]
% Inhibition Corn ([4]; Antidote alone (rate printed as -)): 1.4%
inhibition at 0.25 g/ha ([4]; Antidote at 7.41 G/ha with Herbicide No. 1 at 0.25 G/ha): 16.1%
inhibition at 0.74 g/ha ([4]; Antidote at 7.41 G/ha with Herbicide No. 1 at 0.74 G/ha): 16.3%
inhibition at 2.5 g/ha ([4]; Antidote at 7.41 G/ha with Herbicide No. 1 at 2.5 G/ha): 22.4%
inhibition at 0.25 g/ha ([4]; Antidote at 7.41 G/ha with Herbicide No. 2 at 0.25 G/ha): 17.6%
inhibition at 0.74 g/ha ([4]; Antidote at 7.41 G/ha with Herbicide No. 2 at 0.74 G/ha): 15.9%
inhibition at 2.5 g/ha ([4]; Antidote at 7.41 G/ha with Herbicide No. 2 at 2.5 G/ha): 23.7%
inhibition at 0.07 g/ha ([4]; Antidote at 7.41 G/ha with Herbicide No. 3 at 0.07 G/ha): 39.8%
inhibition at 0.25 g/ha ([4]; Antidote at 7.41 G/ha with Herbicide No. 3 at 0.25 G/ha): 73.9%
inhibition at 0.74 g/ha ([4]; Antidote at 7.41 G/ha with Herbicide No. 3 at 0.74 G/ha): 73.1%

O=C1OC(=O)c2cccc3cccc1c23 [compound 2]
% Inhibition Corn ([4]; Antidote alone as seed treatment (concentration not measured)): 14.5%
inhibition at 0.25 g/ha ([4]; Antidote as seed treatment (concentration not measured) with Herbicide No. 1 at 0.25 G/ha): 14.1%
inhibition at 0.74 g/ha ([4]; Antidote as seed treatment (concentration not measured) with Herbicide No. 1 at 0.74 G/ha): 27.3%
inhibition at 2.5 g/ha ([4]; Antidote as seed treatment (concentration not measured) with Herbicide No. 1 at 2.5 G/ha): 16.7%
inhibition at 0.25 g/ha ([4]; Antidote as seed treatment (concentration not measured) with Herbicide No. 2 at 0.25 G/ha): 8%
inhibition at 0.74 g/ha ([4]; Antidote as seed treatment (concentration not measured) with Herbicide No. 2 at 0.74 G/ha): 24.9%
inhibition at 2.5 g/ha ([4]; Antidote as seed treatment (concentration not measured) with Herbicide No. 2 at 2.5 G/ha): 19%
inhibition at 0.07 g/ha ([4]; Antidote as seed treatment (concentration not measured) with Herbicide No. 3 at 0.07 G/ha): 20.4%
inhibition at 0.25 g/ha ([4]; Antidote as seed treatment (concentration not measured) with Herbicide No. 3 at 0.25 G/ha): 33.7%
inhibition at 0.74 g/ha ([4]; Antidote as seed treatment (concentration not measured) with Herbicide No. 3 at 0.74 G/ha): 58.8%

CC1(C)OC(c2ccco2)CN1C(=O)C(Cl)Cl (stereo not shown) [compound 15]
% Injury VL [2, 9]: 95%
% Injury VL [2, 10]: 95%
% Injury VL [2, 11]: 98%
% Injury VL [2, 12]: 95%
% Injury VL [2, 13]: 95%
% Injury VL [2, 14]: 99%
% Injury VL [2, 15]: 99%
% Injury VL [2, 16]: 95%
% Injury BYG [3, 9]: 99%
% Injury BYG [3, 10]: 95%
% Injury BYG [3, 11]: 100%
% Injury BYG [3, 12]: 100%
% Injury BYG [3, 13]: 99%
% Injury BYG [3, 14]: 99%
% Injury BYG [3, 15]: 100%
% Injury BYG [3, 16]: 100%
